Laboratory results: ChEMBL document CHEMBL1201862, “PubChem BioAssay data set” (2004)
Calls of active or inactive are those of the source.

Experiments:
[1] = inhibitors of clade B AD8 Env fusion, dose response, cell-based, cherry-pick (AID 652062); format: functional;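 note: luciferase signal from cell-cell fusion driven by HIV-1 clade B AD8 Env; potency is for inhibitors of fusion seen as a drop in luminescence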
[2] = HepG2 cell cytotoxicity, dose response, cytotoxicity control for Shn3 inhibitor project, CellTiter-Glo, cherry-picked (AID 624134); format: functional, cell-based
[3] = inhibitors of HIV Env-driven cell fusion, dose response, cherry-pick (AID 652057); format: functional, cell-based
[4] = microbe, parasite or virus in culture; format: functional; details: Mycobacterium tuberculosis
Cytochrome P450 2C9 = Cytochrome P450 2C9 (Homo sapiens, UniProt P11712)
Cytochrome P450 2D6 = Cytochrome P450 2D6 (Homo sapiens, UniProt P10635);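 note: CYP2D6 member of a cytochrome P450 panel assay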
[5] = off-target signal loss in HeLa-CEM21 co-culture – HeLa F-luc CTL cells, cherry-picked, counter-screen for HIV-1 Env fusion inhibitor project, dose response (AID 652040); format: functional, cell-based;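 note: potency for signal decrease marking cytotoxic or nonspecific inhibition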
[6] = ZM109 Env clade C HIV-1 fusion inhibitors, dose response, HeLa effector, CEM target cells, luciferase, cherry-pick (AID 652058); format: functional, cell-based
[7] = CEM21 lymphoblast cell cytotoxicity, dose response, cytotoxicity control for viral fusion inhibitor project, CellTiter-Glo luminescence, cherry-picked (AID 652042); format: functional, cell-based;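 note: potency for signal decrease meaning cytotoxicity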
[8] = Vero cell cytotoxicity, dose response, cytotoxicity control for Vif-APOBEC3G degradation inhibitor project, Vero cells (AID 1117358); format: functional; details: Human immunodeficiency virus 1, Vero
[9] = control 3'UTR Renilla luciferase suppression, dose response, counter-screen for Shn3 inhibitor project, cell-based, Clone20-Shn3RL, cherry-picked (AID 624133); format: functional
Cytochrome P450 1A2 = target: T1, Cytochrome P450 1A2 (Homo sapiens, UniProt P05177);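 note: PubChem cytochrome P450 panel assay, CYP1A2 panel member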
T1 sequence (P05177 whole entry): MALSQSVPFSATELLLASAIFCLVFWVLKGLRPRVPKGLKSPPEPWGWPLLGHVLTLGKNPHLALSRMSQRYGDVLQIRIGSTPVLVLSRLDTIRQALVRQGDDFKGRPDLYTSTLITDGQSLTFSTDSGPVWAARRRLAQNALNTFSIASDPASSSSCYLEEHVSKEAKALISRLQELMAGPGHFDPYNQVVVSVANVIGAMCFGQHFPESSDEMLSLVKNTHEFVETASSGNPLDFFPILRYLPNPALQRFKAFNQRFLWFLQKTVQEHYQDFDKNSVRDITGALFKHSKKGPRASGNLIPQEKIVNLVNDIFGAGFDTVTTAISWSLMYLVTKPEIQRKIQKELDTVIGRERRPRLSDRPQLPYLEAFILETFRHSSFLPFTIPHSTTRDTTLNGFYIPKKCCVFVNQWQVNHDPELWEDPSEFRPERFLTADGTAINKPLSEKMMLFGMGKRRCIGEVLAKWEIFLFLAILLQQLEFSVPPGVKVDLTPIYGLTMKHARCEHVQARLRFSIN

[10] = Shn3 3'UTR reporter inhibitors, dose response, cell-based, Clone20 osteoblasts, firefly luciferase, cherry-picked (AID 624132); format: functional;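 note: firefly luciferase luminescence from reporter carrying the Shn3 3'UTR in osteoblasts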
[11] = NIH:OVCAR-3 ovarian cancer cell cytotoxicity, dose response, PAX8 inhibitor project, plate reader, dry powder samples (AID 743044); format: functional, cell-based
Paired box protein Pax-8 = Paired box protein Pax-8 (Homo sapiens, UniProt Q06710); experiment: inhibitors of PAX8-driven TPO luciferase reporter, dose response, RMG-I cells, cherry-pick (AID 687027); format: functional, cell-based;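 note: luciferase reporter driven by Pax8 target thyroperoxidase promoter measured by SteadyGlo luminescence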
INS1 = experiment: beta cell apoptosis inhibitors, cytokine rescue, dose response, luminescence, retest (AID 449756); format: functional, cell-based; details: Rattus norvegicus;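 note: cell death triggered by IL-1 beta plus TNF-alpha plus IFN-gamma mixture; protective hits raise ATP signal compared with cytokine alone wells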
[12] = cytotoxicity in COV434 cells, dose response, cytotoxicity control for PAX8 inhibitor project, cell-based, plate reader, dry powder, SA7 (AID 743145); format: functional
[13] = target: Neurotensin receptor type 1 (Homo sapiens, UniProt P30989); format: functional;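 note: Image-based confirmatory dose-response assay measuring agonist activity at NTR1; NTR1-expressing U2OS osteosarcoma cells imaged for beta-arrestin GFP spot formation; agonist potency where compounds increase beta-arrestin recruitment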
[14] = PAX5 activity inhibitors, dose response, selectivity assay for PAX8 inhibitor project, cell-based, plate reader, dry powder samples (AID 743047); format: functional;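 note: HEK293 cells carrying a Pax5 driven CD19 promoter luciferase reporter; potency of inhibitors that lower reporter luminescence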
[15] = cytotoxicity in OVCAR4 cells, dose response, cytotoxicity control for PAX8 inhibitor project, cell-based, plate reader, dry powder, SA11 (AID 743150); format: functional; details: OVCAR-4
[16] = A2780 ovarian cancer cell cytotoxicity, dose response, cytotoxicity control, plate reader, dry powder samples (AID 743046); format: functional, cell-based
Vero = experiment: cells; format: functional; details: Chlorocebus sabaeus
[17] = PAX2 cell-based inhibition, dose response, selectivity assay for PAX8 inhibitor project, plate reader, dry powder samples (AID 743048); format: functional;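 note: HEK293 cells carrying a WT1 promoter luciferase reporter driven by expressed Pax2; potency is for inhibition of Pax2 driven reporter signal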
[18] = target: T2, Replicative DNA helicase DnaB (Mycobacterium tuberculosis, UniProt P9WMR3); experiment: DnaB intein splicing inhibitors, dose response, biochemical, cell-free fluorescence (AID 449749); format: functional
T2 sequence (P9WMR3 whole entry): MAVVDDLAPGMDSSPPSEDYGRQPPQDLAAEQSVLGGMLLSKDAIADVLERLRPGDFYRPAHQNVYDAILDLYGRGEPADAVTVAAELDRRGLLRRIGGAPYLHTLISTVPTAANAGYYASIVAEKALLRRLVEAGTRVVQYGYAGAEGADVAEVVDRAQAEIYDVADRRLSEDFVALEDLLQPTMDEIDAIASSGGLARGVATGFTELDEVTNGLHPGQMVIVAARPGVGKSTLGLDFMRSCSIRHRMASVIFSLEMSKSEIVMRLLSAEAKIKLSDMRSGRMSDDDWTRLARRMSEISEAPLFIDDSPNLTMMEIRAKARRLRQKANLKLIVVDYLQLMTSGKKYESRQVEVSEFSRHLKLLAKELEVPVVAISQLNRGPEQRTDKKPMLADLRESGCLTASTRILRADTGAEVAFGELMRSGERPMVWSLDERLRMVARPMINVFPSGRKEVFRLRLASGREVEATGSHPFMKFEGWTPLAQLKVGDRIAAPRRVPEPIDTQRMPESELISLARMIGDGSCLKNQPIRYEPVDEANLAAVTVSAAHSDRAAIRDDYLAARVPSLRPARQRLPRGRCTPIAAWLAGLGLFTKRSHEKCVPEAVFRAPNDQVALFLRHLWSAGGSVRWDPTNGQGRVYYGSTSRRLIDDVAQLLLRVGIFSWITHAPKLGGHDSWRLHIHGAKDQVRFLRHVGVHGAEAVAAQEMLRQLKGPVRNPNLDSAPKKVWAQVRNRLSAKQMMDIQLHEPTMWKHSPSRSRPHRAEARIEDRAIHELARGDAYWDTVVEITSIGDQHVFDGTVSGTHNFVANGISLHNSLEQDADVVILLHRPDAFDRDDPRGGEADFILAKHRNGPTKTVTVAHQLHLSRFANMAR

[19] = target: T3, Hepatocyte nuclear factor 4-alpha (Homo sapiens, UniProt P41235); format: functional, cell-based;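 note: biochemical luminescence-based dose-response counterscreen measuring inhibition of HNF4 dimerization, run alongside a screen for blockers of ABHD5–perilipin-5 interaction; split luciferase complementation of HNF4 fusion proteins in cell lysate measuring dimerization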
T3 sequence (P41235 whole entry): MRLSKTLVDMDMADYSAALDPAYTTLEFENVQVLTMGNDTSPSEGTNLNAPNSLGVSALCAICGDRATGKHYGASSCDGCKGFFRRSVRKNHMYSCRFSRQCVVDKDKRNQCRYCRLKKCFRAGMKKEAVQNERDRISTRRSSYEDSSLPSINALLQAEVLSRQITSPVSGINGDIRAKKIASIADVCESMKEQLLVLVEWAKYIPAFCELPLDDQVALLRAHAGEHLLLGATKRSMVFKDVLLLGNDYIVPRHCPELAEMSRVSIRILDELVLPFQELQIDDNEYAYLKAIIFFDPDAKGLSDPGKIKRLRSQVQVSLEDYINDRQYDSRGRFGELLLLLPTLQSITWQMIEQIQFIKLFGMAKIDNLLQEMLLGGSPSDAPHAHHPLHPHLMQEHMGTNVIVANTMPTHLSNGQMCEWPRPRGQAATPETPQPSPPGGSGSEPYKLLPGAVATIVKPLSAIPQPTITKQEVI

[20] = cytotoxicity in COV362 ovarian cancer cells, dose response, cytotoxicity control for PAX8 inhibitor project, cell-based, plate reader, dry powder, SA12 (AID 743144); format: functional
[21] = cytotoxicity dependent on PAX8, dose response, cell-based, plate reader, dry powder (AID 743049); format: functional
[22] = IGROV1 ovarian cancer cell cytotoxicity, dose response, PAX8 inhibitor project, plate reader, dry powder samples (AID 743043); format: functional, cell-based; details: IGROV-1
Protein RecA = target: T4, Protein RecA (Mycobacterium tuberculosis, UniProt P9WHJ3); experiment: Fluorescence Cell-Free Homogeneous Dose Retest to Identify Inhibitors of RecA-Intein Splicing Activity. [Related pubchem assays (depositor defined):AID2097, AID2223, AID489010, AID492950]; format: functional
T4 sequence (P9WHJ3 whole entry): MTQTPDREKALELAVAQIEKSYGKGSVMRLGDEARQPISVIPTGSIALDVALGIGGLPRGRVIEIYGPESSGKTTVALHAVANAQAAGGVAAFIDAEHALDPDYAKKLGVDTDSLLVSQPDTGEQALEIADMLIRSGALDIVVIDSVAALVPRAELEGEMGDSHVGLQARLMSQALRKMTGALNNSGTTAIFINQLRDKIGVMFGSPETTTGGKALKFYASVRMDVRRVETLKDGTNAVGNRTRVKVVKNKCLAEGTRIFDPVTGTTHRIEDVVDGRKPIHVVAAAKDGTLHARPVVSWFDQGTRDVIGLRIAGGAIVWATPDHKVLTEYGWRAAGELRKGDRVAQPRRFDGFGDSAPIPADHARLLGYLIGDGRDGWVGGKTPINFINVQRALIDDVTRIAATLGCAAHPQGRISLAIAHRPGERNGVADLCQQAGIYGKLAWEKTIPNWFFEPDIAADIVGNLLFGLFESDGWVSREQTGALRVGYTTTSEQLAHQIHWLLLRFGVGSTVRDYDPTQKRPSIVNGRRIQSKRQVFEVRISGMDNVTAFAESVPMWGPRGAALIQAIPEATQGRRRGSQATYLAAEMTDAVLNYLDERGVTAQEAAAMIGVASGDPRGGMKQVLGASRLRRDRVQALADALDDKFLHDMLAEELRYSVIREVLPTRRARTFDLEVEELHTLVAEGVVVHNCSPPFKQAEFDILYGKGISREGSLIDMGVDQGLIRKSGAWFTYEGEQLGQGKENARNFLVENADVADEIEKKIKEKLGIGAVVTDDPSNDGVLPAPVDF

[23] = cytotoxicity in OV-90 ovarian cancer cells, dose response, PAX8 inhibitor project, cell-based, plate reader, dry powder, SA8 (AID 743149); format: functional
[24] = IOSE-T80 ovarian epithelial cell cytotoxicity, dose response, cytotoxicity control for PAX8 inhibitor project, plate reader, dry powder samples (AID 743045); format: functional, cell-based
[25] = HepG2 cell cytotoxicity, dose response, cytotoxicity control, ATP luminescence, cherry-pick, activator set 2 (AID 1053143); format: functional, cell-based
[26] = Luminescence-based cell-based high throughput dose response assay to identify activators of the DAF-12 from the parasite S. stercoralis (ssDAF-12).; format: functional
[27] = target: T5, Oxysterols receptor LXR-beta (Homo sapiens, UniProt P55055); experiment: LXR agonists, Gal4 luciferase reporter, dose response, counter-screen for ssDAF-12 agonist project, cell-based, luminescence, HEK293, S. stercoralis campaign (AID 720737); format: functional; details: read-out: IC50 (the source's name)
T5 sequence (P55055 whole entry): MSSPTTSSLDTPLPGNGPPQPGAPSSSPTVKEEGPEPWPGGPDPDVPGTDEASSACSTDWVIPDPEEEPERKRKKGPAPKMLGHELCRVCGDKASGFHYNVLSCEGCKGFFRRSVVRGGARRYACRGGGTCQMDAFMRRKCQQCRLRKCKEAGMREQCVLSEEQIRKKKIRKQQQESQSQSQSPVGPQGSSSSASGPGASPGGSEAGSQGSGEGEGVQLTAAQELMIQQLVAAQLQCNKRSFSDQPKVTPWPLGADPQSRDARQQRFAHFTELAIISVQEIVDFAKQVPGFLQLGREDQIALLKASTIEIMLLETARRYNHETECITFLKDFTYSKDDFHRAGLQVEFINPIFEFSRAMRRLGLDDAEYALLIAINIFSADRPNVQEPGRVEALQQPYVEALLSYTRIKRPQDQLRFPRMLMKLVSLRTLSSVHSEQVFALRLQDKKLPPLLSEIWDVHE

[28] = target: T5, Oxysterols receptor LXR-beta; format: functional, cell-based

Chain of Paired box protein Pax-8 (Q06710 whole entry): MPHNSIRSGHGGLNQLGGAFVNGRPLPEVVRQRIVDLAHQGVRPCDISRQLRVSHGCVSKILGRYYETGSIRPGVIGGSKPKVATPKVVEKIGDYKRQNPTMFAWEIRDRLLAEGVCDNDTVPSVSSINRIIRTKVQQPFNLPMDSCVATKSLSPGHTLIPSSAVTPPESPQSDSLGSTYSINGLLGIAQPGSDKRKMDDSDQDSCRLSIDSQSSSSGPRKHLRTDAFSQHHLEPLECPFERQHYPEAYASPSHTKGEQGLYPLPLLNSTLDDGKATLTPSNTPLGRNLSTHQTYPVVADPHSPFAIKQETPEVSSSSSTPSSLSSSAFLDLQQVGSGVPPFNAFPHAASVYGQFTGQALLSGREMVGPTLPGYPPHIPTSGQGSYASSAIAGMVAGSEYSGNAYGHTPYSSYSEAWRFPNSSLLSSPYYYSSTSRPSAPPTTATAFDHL
Chain of Cytochrome P450 2C9 (P11712 whole entry): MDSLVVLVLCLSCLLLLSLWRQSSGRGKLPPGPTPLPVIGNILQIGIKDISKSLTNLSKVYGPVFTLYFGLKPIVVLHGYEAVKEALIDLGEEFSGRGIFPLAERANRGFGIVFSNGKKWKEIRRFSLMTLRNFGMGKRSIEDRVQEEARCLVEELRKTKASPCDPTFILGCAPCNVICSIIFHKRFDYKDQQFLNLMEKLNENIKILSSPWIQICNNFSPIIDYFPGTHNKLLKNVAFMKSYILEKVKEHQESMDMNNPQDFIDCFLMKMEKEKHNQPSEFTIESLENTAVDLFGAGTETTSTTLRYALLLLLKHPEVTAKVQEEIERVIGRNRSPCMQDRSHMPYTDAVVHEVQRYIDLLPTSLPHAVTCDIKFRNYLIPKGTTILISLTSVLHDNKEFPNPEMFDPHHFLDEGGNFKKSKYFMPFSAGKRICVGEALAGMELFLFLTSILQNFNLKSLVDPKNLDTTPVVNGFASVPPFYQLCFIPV
Chain of Neurotensin receptor type 1 (P30989 whole entry): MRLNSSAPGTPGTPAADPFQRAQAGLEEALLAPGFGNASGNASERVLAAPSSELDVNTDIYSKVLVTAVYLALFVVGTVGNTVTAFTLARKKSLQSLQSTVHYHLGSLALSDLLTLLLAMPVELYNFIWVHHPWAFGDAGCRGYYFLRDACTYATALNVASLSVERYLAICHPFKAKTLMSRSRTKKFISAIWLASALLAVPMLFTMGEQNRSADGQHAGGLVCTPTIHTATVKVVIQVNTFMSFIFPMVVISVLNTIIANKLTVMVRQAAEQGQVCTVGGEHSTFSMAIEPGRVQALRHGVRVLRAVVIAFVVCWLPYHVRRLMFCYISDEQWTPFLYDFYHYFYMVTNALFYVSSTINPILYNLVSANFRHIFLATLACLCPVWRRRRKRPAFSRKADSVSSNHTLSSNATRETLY
Chain of Cytochrome P450 2D6 (P10635 whole entry, the tested form may be a part): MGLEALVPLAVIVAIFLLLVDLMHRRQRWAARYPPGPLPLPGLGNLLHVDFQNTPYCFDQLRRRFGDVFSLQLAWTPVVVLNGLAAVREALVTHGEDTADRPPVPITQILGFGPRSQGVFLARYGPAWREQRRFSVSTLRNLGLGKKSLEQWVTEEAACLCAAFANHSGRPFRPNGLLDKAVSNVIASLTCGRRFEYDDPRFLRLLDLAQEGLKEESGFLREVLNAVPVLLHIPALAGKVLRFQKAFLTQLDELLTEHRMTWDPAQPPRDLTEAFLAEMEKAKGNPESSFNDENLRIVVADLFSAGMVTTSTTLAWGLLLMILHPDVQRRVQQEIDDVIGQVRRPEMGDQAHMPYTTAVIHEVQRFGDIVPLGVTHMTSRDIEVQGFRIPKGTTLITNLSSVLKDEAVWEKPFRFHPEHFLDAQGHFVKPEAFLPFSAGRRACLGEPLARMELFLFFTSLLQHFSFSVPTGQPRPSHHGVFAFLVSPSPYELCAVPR

Nc1nc(Cl)cc(N2CCC(c3cc(-c4ccc(Cl)cc4Cl)[nH]n3)CC2)n1
AC50 [1]: 16.6 µM (active)
AC50 [2]: 62 µM (active)
AC50 [3]: 18.5 µM (active)
CC50 [4]: > 40 µM (active)
AC50 (Cytochrome P450 2C9): 22.4 µM (inconclusive)
AC50 (Cytochrome P450 2D6): 12.6 µM (inconclusive)
AC50 [5]: > 70 µM (inactive)
AC50 [6]: 0.394 µM (active)
AC50 [7]: 36.1 µM (active)
CC50 [8]: > 40 µM (active)
AC50 [9]: 5.61 µM (active)
AC50 (Cytochrome P450 1A2): 6.31 µM (inconclusive)
AC50 [10]: 4.94 µM (active)

O=C(Nc1ccc(Cl)cc1)/C(=C/c1cccc(O)c1)c1nc2ccccc2s1
AC50 [11]: 8.14 µM (active)
AC50 (Paired box protein Pax-8): 3.92 µM (active)
AC50 (INS1): 3.7 µM (active)
AC50 [12]: 9.35 µM (active)
AC50 [2]: 9.66 µM (active)
EC50 [13]: 6.69 µM (active)
AC50 [14]: 7.08 µM (active)
AC50 [15]: 13.7 µM (active)
AC50 [16]: 15.1 µM (active)
CC50 (Vero): 2.37 µM (active)
AC50 [17]: 12.8 µM (active)
AC50 [18]: > 380 µM (inconclusive)
IC50 [19]: 4.66 µM (active)
AC50 [20]: 5.28 µM (active)
AC50 [21]: 4.02 µM (active)
AC50 [22]: 30.7 µM (active)
AC50 [9]: 9.54 µM (active)
AC50 [10]: 3.53 µM (active)
EC50 (Protein RecA): 0.481 µM (active)
AC50 [23]: 4.14 µM (active)
AC50 [24]: 11.5 µM (active)

Oc1ccccc1-c1cc(-c2ccccc2)[nH]n1
AC50 [25]: 26 µM (active)
IC50 [26]: > 67.4 µM (inactive)
EC50 [27]: > 67.4 µM (inactive)
EC50 [28]: > 67.4 µM (inactive)
EC50 (cells): > 67.4 µM (inactive)

Cc1ccccc1C(=O)N/N=C1/SCC(=O)N1Cc1ccccc1
IC50 [26]: > 67.5 µM (inactive)
EC50 [27]: > 67.5 µM (inactive)

C=CCOc1ccc(Br)cc1/C=N/O
CC50 [8]: 2.72 µM (active)
